Measurements taken from publication PMC10976043, “Function and Mechanism of Antiviral Wasp Venom Peptide Protopolybia-MP III and Its Derivatives against HSV-1” (Toxins, 2024).
Like-named read-outs stand apart in the source and are kept apart here. Ends that are not written are not given here.

Legend:
HSV-1 = assay type: cell-based, herpes simplex virus type 1; conditions: for effect on intracellular HSV-1 RNA: different concentrations, HSV-1 MOI 1, 24 h, qPCR
Method: (§1) (A) Amino acid sequence of Protopolybia-MP III. Basic residues are labeled blue, and acidic residues are labeled red. (B,C) Suppression of intracellular HSV-1 infection by Protopolybia-MP III. Cells were preincubated with Protopolybia-MP III at different concentrations or PBS for 1 h and then infected with HSV-1 at a multiplicity of infection (MOI) of 1. After 24 h, the cells were collected. Intracellular HSV-1 RNA was analyzed by qPCR (B), and intracellular HSV-1 ICP0 protein levels were analyzed by Western blotting (C). (D) Suppression of Protopolybia-MP III on extracellular HSV-1 particles. Cells were treated with Protopolybia-MP III at different concentrations or PBS for 24 h, and then the supernatant was collected and evaluated in a plaque formation assay. (E) Cytotoxicity of Protopolybia-MP III to Vero cells. Cells were treated with Protopolybia-MP III or PBS at different concentrations for 24 h, and then the cytotoxicity was determined by CCK8 assay. * p < 0.05. ** p < 0.01. *** p < 0.001.
(§2) Figure 2 Protopolybia-MP III inhibits HSV-1 replication in human cell lines. (A) Cytotoxicities of Protopolybia-MP III to A549 cells, HCEC, and SK-N-MC. Cells were treated with Protopolybia-MP III at different concentrations or PBS for 24 h, and then cytotoxicities were determined by the CCK8 assay. (B,C) Suppression of intracellular HSV-1 infection by Protopolybia-MP III in A549 cells, HCEC, and SK-N-MC. Cells were preincubated with Protopolybia-MP III at different concentrations or PBS for 1 h and then infected with HSV-1 at an MOI of 1. After 24 h, the cells were collected. Intracellular HSV-1 RNA was analyzed by qPCR (B), and intracellular HSV-1 ICP0 protein expression levels were analyzed by Western blotting (C). (D) Inhibition of Protopolybia-MP III on extracellular HSV-1 particles in A549 cells, HCEC, and SK-N-MC. Cells were treated with Protopolybia-MP III at different concentrations or PBS for 24 h, and then the supernatant was collected and evaluated in a plaque formation assay. * p < 0.05. ** p < 0.01. *** p < 0.001.
(§3) HSV-1 was kindly provided by Professor Zhijian Cao of Wuhan University. Cells were infected with HSV-1 at an MOI of 1 for 24 h. Then, cells were collected for qPCR, Western blotting, and immunofluorescence assays, and the extracellular supernatant was used for plaque formation assays.
Cells were collected and lysed using TRIzol reagent (Beyotime Biotechnology, Shanghai, China) to release the intracellular total RNA, followed by precipitation with isopropanol. The first-strand cDNA was reverse-transcribed by the HiScript III 1st Strand cDNA Synthesis Kit (+gDNA wiper) (Vazyme, Nanjing, China). The cDNA was quantitated by qPCR with primers using Taq Pro Universal SYBR qPCR Master Mix (Vazyme). The HSV-1 primers were 5′-[…]-3′ (sense) and 5′-[…]-3′ (antisense). The monkey GAPDH primers were 5′-[…]-3′ (sense) and 5′-[…]-3′ (antisense). The human GAPDH primers were 5′-[…]-3′ (sense) and 5′-[…]-3′ (antisense). qPCR experiments were performed on a Bio-Rad CFX96 Touch (Pleasanton, CA, USA) according to the manufacturer’s instructions.

HSV-1 ICP0 = assay type: cell-based, herpes simplex virus type 1; conditions: for effect on intracellular HSV-1 ICP0 expression level: HSV-1 MOI 1, 24 h, Western blotting; for inhibition rate on intracellular HSV-1 ICP0 expression level: ICP0, 24 h
Method: as §1, §2
Figure 7 Antiviral activity analysis of Protopolybia-MP III mutants. (A) Amino acid sequences of Protopolybia-MP III mutants. Identical amino acids among Protopolybia-MP I, Protopolybia-MP III, and its mutants are marked in blue, and different amino acids are marked in red. (B) Suppression of Protopolybia-MP I, Protopolybia-MP III, and its mutants on intracellular HSV-1 content. Cells were preincubated with 20 μg/mL peptides or PBS for 1 h and then infected with HSV-1 at an MOI of 1. After 24 h, the cells were collected. Intracellular HSV-1 ICP0 protein levels were analyzed by Western blotting. The ratios of HSV-1 ICP0 to GAPDH were calculated by ImageJ software. (C) Inhibition of HSV-1 free virion infectivity by Protopolybia-MP I, Protopolybia-MP III, and its mutants. HSV-1 (MOI = 1) and 5 μg/mL peptides or PBS were coincubated at 37 °C for 1 h, and the mixtures were then used to infect Vero cells. After 24 h, cells were collected, and intracellular HSV-1 RNA was analyzed by qPCR. ns, no significance. * p < 0.05. ** p < 0.01. *** p < 0.001.
as §3
Cells were collected and lysed in 1% SDS. The cell lysate was heated at 100 °C for 20 min and centrifuged at 12,000 rpm at 4 °C for 15 min, and then the supernatant was collected and assayed with a BCA Protein Quantification Kit (Vazyme). Equal amounts of protein were separated using a PAGE Gel Fast Preparation Kit (10%) (Epizyme Biotech, Wuhan, China) and transferred to nitrocellulose (NC) membranes (Millipore, Wuhan, China). […]

Vero cells = test: CCK8 cytotoxicity assay, Vero cells; assay type: cell-based, monkey; conditions: 40 μg/mL, 24 h
Method: as §1
(§4) Cells were seeded in a 96-well plate (7000–10,000 cells per well) and cultured at 37 °C overnight. Peptides in a series of concentrations were added to the medium, and cells were then incubated at 37 °C for 24 h. […] Finally, the absorbance was measured at 450 nm using a microplate reader (BioTek, Winooski, VT, USA).

A549 cells = test: CCK8 cytotoxicity assay, A549 cells; assay type: cell-based, human; conditions: 40 μg/mL, 24 h
Method: as §2, §4

[1] = system: human neuroepithelial cells (SK-N-MC); test: CCK8 cytotoxicity assay, SK-N-MC; assay type: cell-based; conditions: 40 μg/mL, 24 h
Method: as §2, §4

INWLKLGKAVIDAL-NH2 [Protopolybia-MP III]
50% inhibitory concentration (IC50) against HSV-1 RNA (HSV-1; 1 h): 5.132 ± 1.054 µg/mL | inhibition rate on intracellular HSV-1 RNA (HSV-1; 1 h, 5 μg/mL): 50% | inhibition rate on intracellular HSV-1 RNA (HSV-1; 1 h, 10 μg/mL): 73% | inhibition rate on intracellular HSV-1 RNA (HSV-1; 1 h, 20 μg/mL): 94% | effect on intracellular HSV-1 RNA (HSV-1; A549 cells): suppressed HSV-1 RNA | effect on intracellular HSV-1 RNA (HSV-1; HCEC): suppressed HSV-1 RNA | effect on intracellular HSV-1 RNA (HSV-1; SK-N-MC): suppressed HSV-1 RNA | effect on intracellular HSV-1 ICP0 expression level (HSV-1 ICP0; A549 cells): strongly inhibited | effect on intracellular HSV-1 ICP0 expression level (HSV-1 ICP0; HCEC): strongly inhibited | inhibition rate on intracellular HSV-1 ICP0 expression level (HSV-1 ICP0; 5 μg/mL): 67% | inhibition rate on intracellular HSV-1 ICP0 expression level (HSV-1 ICP0; 10 μg/mL): 74% | inhibition rate on intracellular HSV-1 ICP0 expression level (HSV-1 ICP0; 20 μg/mL): 96% | effect on intracellular HSV-1 ICP0 expression level (HSV-1 ICP0; SK-N-MC): strongly inhibited | cytotoxicity to Vero cells (Vero cells): almost nontoxic | cytotoxicity to A549 cells (A549 cells): almost nontoxic | cytotoxicity to SK-N-MC [1]: almost nontoxic
